Experimental data taken from US20250171495A1, “MUTLI-TARGETED SERINE PROTEASE INHIBITORS FOR TREATMENT OF CANCER AND VIRAL INFECTION” (Washington University, priority 2023, published 2025).
Where two headings read alike, the source gives them in different places. Numbered stars: 1 amine (or outer) side, 2 acyl side, 3 side chain; on linkers, the order of the positions; unused ones are H or OH. Square brackets hold non-standard residues; d marks the D form. Peptide text beside a SMILES is read from it. X1 = N=C(N)NCCC[C@H](N[*:1])C(=O)c1nc2ccc(C(=O)[*:2])cc2s1

Key:
[1] = tested on: SARS-CoV-2; format: cell-based; design: unit not given here
[2] = target: TMPRSS2 (Homo sapiens, UniProt O15393); assay: Fluorogenic kinetic enzyme inhibitor assay, TMPRSS2; format: biochemical; design: purchased Cusabio Technology CSB-YP023924HU
Chain of TMPRSS2 (O15393 106-492 limits assumed): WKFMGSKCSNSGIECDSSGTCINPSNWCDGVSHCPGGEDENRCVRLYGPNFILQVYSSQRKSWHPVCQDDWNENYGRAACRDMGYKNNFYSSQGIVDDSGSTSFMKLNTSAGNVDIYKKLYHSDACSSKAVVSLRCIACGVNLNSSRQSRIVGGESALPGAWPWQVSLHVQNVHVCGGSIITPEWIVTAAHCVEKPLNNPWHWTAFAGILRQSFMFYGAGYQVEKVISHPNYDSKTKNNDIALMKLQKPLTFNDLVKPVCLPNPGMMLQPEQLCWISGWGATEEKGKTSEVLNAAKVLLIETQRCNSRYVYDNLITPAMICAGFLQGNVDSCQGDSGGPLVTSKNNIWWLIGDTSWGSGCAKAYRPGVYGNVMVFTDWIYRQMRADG

[3] = target: T1, HGFA (Homo sapiens, UniProt Q04756); assay: Fluorogenic kinetic enzyme inhibitor assay, HGFA; format: biochemical; details: read-out: HGFA IC50
T1 construct: purchased R&D Systems 1514-SE-010
T1 sequence (Q04756 408-655 limits assumed): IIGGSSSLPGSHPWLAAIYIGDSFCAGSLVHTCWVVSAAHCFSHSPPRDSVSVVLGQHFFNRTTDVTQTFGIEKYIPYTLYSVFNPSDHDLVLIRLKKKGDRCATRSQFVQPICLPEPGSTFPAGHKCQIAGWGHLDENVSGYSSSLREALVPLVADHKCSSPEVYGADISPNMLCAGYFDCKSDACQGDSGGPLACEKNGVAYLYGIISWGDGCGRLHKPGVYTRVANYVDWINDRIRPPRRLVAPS
T1 sequence (Q04756 373-407 partner limits assumed): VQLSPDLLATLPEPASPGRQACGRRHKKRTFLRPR

[4] = target: T2, matriptase (Homo sapiens, UniProt Q9Y5Y6); assay: Fluorogenic kinetic enzyme inhibitor assay, matriptase; format: biochemical; details: read-out: Matriptase IC50
T2 construct: purchased R&D Systems 3946-SEB-010
T2 sequence (Q9Y5Y6 615-855 limits assumed): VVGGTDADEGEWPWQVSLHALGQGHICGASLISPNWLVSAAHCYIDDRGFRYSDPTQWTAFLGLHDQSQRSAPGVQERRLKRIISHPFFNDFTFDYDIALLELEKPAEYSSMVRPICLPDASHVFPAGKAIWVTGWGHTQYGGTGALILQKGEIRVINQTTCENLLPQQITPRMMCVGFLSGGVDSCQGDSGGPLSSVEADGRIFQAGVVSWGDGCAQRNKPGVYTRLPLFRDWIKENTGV

[5] = target: T3, hepsin (Homo sapiens, UniProt P05981); assay: Fluorogenic kinetic enzyme inhibitor assay, hepsin; format: biochemical; details: read-out: Hepsin IC50
T3 construct: purchased R&D Systems 4776-SE-010
T3 sequence (P05981 163-417 limits assumed): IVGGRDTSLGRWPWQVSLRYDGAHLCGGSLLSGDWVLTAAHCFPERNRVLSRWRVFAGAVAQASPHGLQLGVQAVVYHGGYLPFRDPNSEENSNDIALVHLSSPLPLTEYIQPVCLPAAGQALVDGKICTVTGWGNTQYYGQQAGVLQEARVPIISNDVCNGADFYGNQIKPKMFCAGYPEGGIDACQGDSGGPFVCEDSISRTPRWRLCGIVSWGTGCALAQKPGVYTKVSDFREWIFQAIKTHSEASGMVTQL
T3 sequence (P05981 1-162 partner limits assumed): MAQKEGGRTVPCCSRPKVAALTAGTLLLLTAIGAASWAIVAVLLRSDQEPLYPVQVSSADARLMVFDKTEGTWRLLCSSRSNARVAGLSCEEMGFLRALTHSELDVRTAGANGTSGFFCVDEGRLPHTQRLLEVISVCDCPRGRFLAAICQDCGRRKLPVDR

[6] = target: Thrombin (Homo sapiens, UniProt P00734); assay: Fluorogenic assay, thrombin; format: biochemical
[7] = target: T4, Factor Xa (Homo sapiens, UniProt P00742); assay: Fluorogenic assay, Factor Xa; format: biochemical; details: read-out: Factor Xa IC50
T4 construct: TMPRSS2; Matriptase; Hepsin; HGFA; Thrombin; Factor Xa
T4 sequence (P00742 235-488 limits assumed): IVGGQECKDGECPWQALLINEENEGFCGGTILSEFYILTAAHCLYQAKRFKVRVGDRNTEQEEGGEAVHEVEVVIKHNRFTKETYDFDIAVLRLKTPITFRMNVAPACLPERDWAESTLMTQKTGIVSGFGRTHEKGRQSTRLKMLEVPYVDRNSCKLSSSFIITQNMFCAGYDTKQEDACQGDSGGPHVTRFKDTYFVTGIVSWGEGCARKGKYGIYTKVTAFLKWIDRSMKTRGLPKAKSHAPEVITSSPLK
T4 sequence (P00742 41-179 partner limits assumed): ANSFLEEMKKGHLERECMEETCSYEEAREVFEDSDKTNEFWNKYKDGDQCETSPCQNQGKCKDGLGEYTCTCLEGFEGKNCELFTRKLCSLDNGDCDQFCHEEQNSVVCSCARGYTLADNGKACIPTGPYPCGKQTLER

Compound	ring closure, yield of all isomers (from CC(=O)N[C@@H](CC(=O)O)C(=O)N[C@@H](CC(C)C)C(=O)N[C@@H](CCCCN)C(=O)O, amide bond, EDCI/HOBt/iPr2NEt, DMF, 21.25 mM, 25.0 °C, 16.0 h, 9 steps)	ring closure, yield of all isomers (from C=CCOc1ccc(C[C@H](NC(C)=O)C(=O)N[C@@H](CC(C)C)C(=O)N[C@@H](CC=C)C(=O)OC)cc1, rcm bond, Grubbs 2nd generation catalyst, DCM, 1.28 mM, 40.0 °C, 18.0 h)	SARS-CoV-2 Calu-3- titer (0.01 uM) [1]	SARS-CoV-2 Calu-3 titer (0.1 uM) [1]	SARS-CoV-2 Calu-3 titer (1 uM) [1]	IC50 [2]	IC50 [3]	IC50 [4]	IC50 [5]	IC50 [6]	IC50 [7]
CC(=O)N[C@H]1CC(=O)NCCCC[C@@H](C(=O)O)NC(=O)[C@H](CC(C)C)NC1=O	59.1%										
COC(=O)[C@@H]1CC=CCOc2ccc(cc2)C[C@H](NC(C)=O)C(=O)N[C@@H](CC(C)C)C(=O)N1 [Ac-cyclo-(L) Tyr-Leu-allyl-OMe]		65%									
CC(=O)N[C@H]1CC(=O)NCCCC[C@@H](C(=O)N[C@@H](CCCNC(=N)N)C(=O)c2nc3ccccc3s2)NC(=O)[C@H](CC(C)C)NC1=O [VD2173, Ac-Cyclo(DLK)—R-ketobenzothiazole]			11	17	57	2.14 nM	8520 nM	2.6 nM	19 nM	8140 nM	2050 nM
CC(=O)N[C@@H](CO)C(=O)N[C@@H](CCCCN)C(=O)N[C@@H](CC(C)C)C(=O)N[C@@H](CCCNC(=N)N)C(=O)c1nc2ccc(C(=O)N[C@H](C(N)=O)C(C)C)cc2s1 [ZFH7116, N-[(S)-1-carbamoyl-2-methylpropyl]-2-[(S)-2-[(S)-2-[(S)-1-[(S)-2-acetylamino-3-hydroxypropionylamino]-5-aminopentylcarbonyl-amino]-4-methylvalerylamino]-5-guanidinovaleryl]-1,3-benzothiazole-6-carboxamide] (Ac-SKL[X1]V-NH2)						2.5 nM	23 nM	14 nM	1 nM	7530 nM	514 nM
